Results published in patent publication US7763585B2, “Methods for inhibiting tumor cell proliferation” (priority 2003, dated 2010).

Columns and labels:
[1] = system: Stat3-independent luciferase reporter (pRLSRE); assay: Stat3-independent renilla luciferase reporter in NIH3T3/v-Src/pRLSRE; type: cell-based, mouse; conditions: FIG. 4
Description: FIGS. 4A-B show inhibition of Stat3-mediated gene expression in intact cells by platinum complexes. v-Src-transformed mouse fibroblasts that stably express Stat3-dependent (NIH3T3/v-Src/pLucTKS3) and Stat3-independent (NIH3T3/v-Src/pRLSRE) luciferase reporters were treated with platinum complexes for the indicated times. Cytosolic extracts were then prepared from cells for Stat3-dependent firefly luciferase activity (FIG. 4A) and Stat3-independent renilla luciferase measurements (FIG. 4B). Values are the means and S.D. of five independent assays. […]
Cytosolic lysates preparation from fibroblasts for luciferase assays or from baculovirus-infected Sf-9 insect cells have been previously described (Turkson et al., 1998; Turkson et al., 2001; Turkson et al., 1999; Zhang et al., 2000). Luciferase assays were performed as outlined in the supplier's (Promega) manual and measured with a luminometer. […]

[2] = system: human breast and non-small cell lung cancer cell lines; assay: Cell proliferation ([3H]-thymidine incorporation) of human breast and non-small cell lung cancer cell lines; type: cell-based; conditions: FIG. 6
From the text: (§1) FIGS. 6A and 6B show the effects of platinum complexes on cell proliferation and viability. […] Values are the mean and S.D. of 3-4 independent determinations.
(§2) The effects of platinum complexes on cell proliferation measured by [^3H]-thymidine incorporation were investigated.

[3] = system: normal NIH3T3 fibroblasts; assay: TUNEL staining for apoptosis, normal fibroblasts; type: cell-based, mouse; conditions: 48 h treatment, FIG. 7
Description: (§3) FIG. 7 is a photograph showing induction of apoptosis by platinum complexes. Normal NIH3T3 fibroblasts and their v-Src-transformed counterparts were treated with platinum complexes for 48 h and analyzed for evidence of DNA damage using TUNEL staining kit.
(§4) Proliferating cells were counted by phase-contrast microscopy for viable cells (using trypan blue exclusion. TUNEL staining was carried according to supplier's instructions to detect apoptotic cells. Cells (NIH3T3 or NIH3T3/v-Src) were first treated with or without compounds 24-48 h prior to staining.
(§5) Studies have established a critical role for constitutive Stat3 signaling in the survival of transformed and tumor cells (Catlett-Falcone et al., 1999a; Grandis et al., 2000a; Epling-Burnette et al., 2001; Bowman et al., 2000b; Grandis et al., 2000b; Horiguchi et al., 2002). Effects of the subject platinum compounds on viability and survival of malignant cells were evaluated. To determine whether inhibition of persistently-active Stat3 by the subject compounds results in apoptosis, Src-transformed and normal mouse fibroblasts were treated with the subject platinum compounds and subjected to TUNEL staining for evidence of apoptosis.

[4] = system: Src-transformed NIH3T3 fibroblasts; assay: TUNEL staining for apoptosis, Src-transformed NIH3T3 fibroblasts; type: cell-based, mouse; conditions: 48 h treatment, FIG. 7
Description: as §3, §4, §5

Stat3 = assay: EMSA of nuclear extracts from treated cells with constitutively-activated Stat3; type: cell-based, mouse and human; conditions: Src-transformed fibroblasts and human tumor cells, FIG. 3
Description: FIG. 3 is a photograph showing the evaluation of effects of platinum complexes on Stat3 activation analyzed by EMSA. Nuclear extracts prepared from malignant cells that contain constitutively-activated Stat3 and treated with platinum complexes for the indicated times were analyzed by EMSA using hSIE oligonucleotide probe. Extracts were prepared from v-Src-transformed NIH3T3/v-Src; human breast carcinoma MDA-MB-231; MDA-MB-435; and […]. Position of Stat3:DNA complex in gel is shown.
Nuclear extracts were prepared from cell lines and used for EMSA as previously described (Turkson et al., 1998; Yu et al., 1995; Garcia et al., 1997). In some cases, cells were pre-treated with platinum complexes for the indicated times prior to harvesting. Where cells were stimulated with EGF (6 ng/ml), duration of treatment was 15 min. Nuclear extracts were pre-incubated with compounds for 30 min at room temperature prior to incubation with radiolabeled probe. The ^32P-radiolabeled oligonucleotide probes used are hSIE (high affinity sis-inducible element, m67 variant, 5′-[…]-3′) (SEQ ID NO:1) that binds both Stat1 and Stat3 (Garcia et al., 1997; Wagner et al., 1990), MGFe (mammary gland factor element from the bovine β-casein gene promoter, 5′-[…]-3′) (SEQ ID NO:2) that binds Stat1 and Stat5 (Gouilleux et al., 1995; Seidel et al., 1995), the NF-κB binding oligo (5′-[…]-3′) (SEQ ID NO:3), and the oligonucleotide sequence from the DHFR promoter that binds E2F1.
The effects of platinum complexes on persistent activation of Stat3 in Src-transformed fibroblasts and human tumor cells were investigated. […] These studies were then extended to evaluate the effects of the platinum complexes on Stat3 transcriptional activity.

[5] = system: human tumor cells that do not contain constitutively-active Stat3; assay: Cell proliferation ([3H]-thymidine incorporation) of human tumor cells without constitutively-active Stat3; type: cell-based; conditions: FIG. 6; reduction in growth rate but not growth inhibitory
From the text: as §1, §2

SMILES	Induction of Stat3-independent luciferase activity [1]	Growth of human breast and non-small cell lung cancer cell lines ([3H]-thymidine incorporation) [2]	Apoptosis (TUNEL staining) in normal fibroblasts [3]	Apoptosis (TUNEL staining) in Src-transformed NIH3T3 fibroblasts [4]	Inhibition of constitutive Stat3 activation in treated cells (EMSA of nuclear extracts) (Stat3)	Growth of human tumor cells that do not contain constitutively-active Stat3 [5]
[NH2][Pt]([NH2])([Cl])([Cl])([Cl])[N+](=O)[O-] [ISS CPA-7]	little or no effect	strongly inhibited	marginal degree of apoptosis	strong apoptosis	strong inhibition	marginal effect
O=[N+]([O-])[Pt]1([Cl])([Cl])([Cl])[NH]CC[NH]1 [ISS CPA-1]	little or no effect	strongly inhibited	marginal degree of apoptosis	strong apoptosis	strong inhibition	marginal effect
